Assays:
[1] = biological target: T1, Monoamine oxidase B (MAO-B) (Homo sapiens, UniProt P27338); test: Monoaminooxidase B inhibition (H2O2/vanillic acid/HRP readout); type: biochemical; conditions: substrate benzylamine 0.5 mM; +/− s.e.m.; read-out: IC50 [μM] for Inhibition of MAO-B
T1 sequence (P27338 1-520): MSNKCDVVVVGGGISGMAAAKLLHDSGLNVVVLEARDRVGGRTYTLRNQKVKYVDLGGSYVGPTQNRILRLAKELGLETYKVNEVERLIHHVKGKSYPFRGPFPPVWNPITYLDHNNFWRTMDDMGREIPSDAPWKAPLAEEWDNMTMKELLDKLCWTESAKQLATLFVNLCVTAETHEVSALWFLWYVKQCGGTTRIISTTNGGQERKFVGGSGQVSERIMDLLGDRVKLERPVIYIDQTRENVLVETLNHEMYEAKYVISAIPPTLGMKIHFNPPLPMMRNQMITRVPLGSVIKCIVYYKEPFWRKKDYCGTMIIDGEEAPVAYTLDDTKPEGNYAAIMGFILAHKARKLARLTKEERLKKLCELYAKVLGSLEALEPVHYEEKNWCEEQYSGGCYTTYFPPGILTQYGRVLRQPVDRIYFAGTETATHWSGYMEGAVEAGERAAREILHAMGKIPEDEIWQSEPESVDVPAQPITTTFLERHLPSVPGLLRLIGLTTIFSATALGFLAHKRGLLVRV
Description: (§1) The organic amines p-tyramine or benzylamine were used as substrates for the Monoamine oxidase A (MAO-A) and B (MAO-B) enzymes respectively. The H2O2 produced by this reaction was quantified by reaction with vanillic acid, catalysed by horse radish peroxidase (HRP).
(§2) The reactions were carried out in polystyrene microtitre plates. The MAO enzymes (final concentration 2 U/ml) were mixed with either p-tyramine (Sigma, final concentration 0.5 mM) or benzylamine (Sigma, final concentration 0.5 mM) as appropriate and the chromogenic solution (containing vanillic acid (Fluka), 4-aminoantipyrine (Fluka) and horse radish peroxidase (Sigma), final concentrations 0.25 mM, 0.125 mM and 1 U/ml respectively) in 0.2 M potassium phosphate buffer pH 7.6. The reactions were followed in a microtitre plate absorbance reader eg Spectramax M5 (Molecular Devices Corporation). Absorbance readings at 495 nm were taken every 15 seconds for 40 minutes and the initial reaction velocities calculated by linear regression using SOFTmaxPro (Molecular Devices Corporation).
(§3) The effect of ligustilide, 3-butylphthalide, senkyunolide C and cnidilide on the monoamine oxidase enzymes was determined by their inclusion in the assay at a range of concentrations between 0.03 and 100 μM for 10 minutes prior to and during the incubation with substrate. To determine the effect of the compounds on the HRP catalyzed portion of the reaction, the MAO enzyme was replaced by H2O2 (Molecular Probes, final concentration 0.2 mM). The reactions containing MAO-A and MAO-B were both inhibited by […] according to formula I in a dose dependent manner, whilst the control reaction, was unaffected. The measured IC50 values for inhibition of monoamine oxidase activity by ligustilide, 3-butylphthalide, senkyunolide C and enidilide, respectively, are shown in Table 3.

[2] = biological target: T2, human serotonin re-uptake transporter (hSERT) (Homo sapiens, UniProt P31645); test: Serotonin uptake inhibition in HEK-293 cells expressing hSERT; type: cell-based; conditions: transfected HEK-293 cells; 20 nM (3H) serotonin, 30 minutes; average +/− s.e.m.; read-out: IC50 for tritiated serotonin uptake
T2 construct: host or cells: HEK-293
Description: HEK-293 cells stably expressing the human serotonin re-uptake transporter (hSERT) were obtained from R. Blakely, Vanderbilt University, USA. The cells were routinely grown in Dulbeco's Modified Eagles Medium, purchased from Bioconcept, Allschwil, Switzerland containing 10% fetal calf serum, penicillin, streptomycin, L-glutamine and the antibiotic G418 and passaged by trypsinisation. One day prior to the assay cells were seeded in the above mentioned medium. Immediately prior to the assay the medium was replaced by Krebs Ringers bicarbonate buffer, purchased from Sigma Chemicals Ltd., supplemented with 35 μM pargyline, 2.2 mM CaCl2, 1 mM ascorbic acid and 5 mM N-2-hydroxyethylpiperazine-N′-2-ethanesulfonic acid (buffer called “Hepes”). Serotonin uptake into the cells was determined by addition of radio-labeled (3H) serotonin (Amersham Biosciences GE Healthcare, Slough, UK) to a concentration of 20 nM, and incubation for 30 minutes at room temperature. Following removal of unincorporated label by gentle washing three times with the above buffer, incorporated serotonin was quantified by liquid scintillation counting.
The effect of the compounds of formula I on the serotonin uptake was determined by its inclusion in the assay at a range of concentrations between 0.03 and 100 μM for 10 minutes prior to and during the addition of (3H) serotonin/citalopram. Serotonin uptake via the transporter was inhibited by ligustilide, 3-butylphthalide, senkyunolide A, senkyunolide C, senkyunolide B, and cnidilide, respectively, in a dose dependent manner, with IC50 values as shown in Table 2.

[3] = biological target: T3, Monoamine oxidase A (MAO-A) (Homo sapiens, UniProt P21397); test: Monoaminooxidase A inhibition (H2O2/vanillic acid/HRP readout); type: biochemical; conditions: substrate p-tyramine 0.5 mM; +/− s.e.m.; read-out: IC50 [μM] for Inhibition of MAO-A
T3 sequence (P21397 1-527): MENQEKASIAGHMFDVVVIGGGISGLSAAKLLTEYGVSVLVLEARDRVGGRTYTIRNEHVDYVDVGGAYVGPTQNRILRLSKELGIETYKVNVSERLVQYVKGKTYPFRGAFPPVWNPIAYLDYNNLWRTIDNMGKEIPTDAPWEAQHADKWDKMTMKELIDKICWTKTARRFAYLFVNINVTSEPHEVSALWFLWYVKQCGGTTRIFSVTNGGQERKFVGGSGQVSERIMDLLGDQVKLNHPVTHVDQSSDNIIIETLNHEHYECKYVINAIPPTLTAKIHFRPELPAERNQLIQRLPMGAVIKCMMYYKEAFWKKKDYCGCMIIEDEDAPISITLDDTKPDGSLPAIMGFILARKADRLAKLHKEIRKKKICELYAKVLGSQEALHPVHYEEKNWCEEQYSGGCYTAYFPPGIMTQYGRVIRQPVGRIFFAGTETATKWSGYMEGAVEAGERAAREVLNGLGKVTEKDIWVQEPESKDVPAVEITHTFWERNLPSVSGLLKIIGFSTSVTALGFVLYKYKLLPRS
Description: as §1, §2, §3

mice = test: Marble burying test; type: in vivo, mouse; conditions: 10 mg/kg p.o., −24, −5, −1 h
Description: A celery seed oil extract rich in phthalides was tested in the marble burying test. A crude extract from celery seed oil (Apium graveolens) obtained by supercritical CO2 fluid extraction of the seed was bought from Guanzhou Honsea Sunshine Bio Science & Technology, Guangzhou, 510620, Peopole's Republic of China. This extract (66.15 g) was distilled for about 2 hours in a ca. 30 cm Kugelrohr at a temperature of 125° C., under a pressure of 0.02 mbar. The distillate contained 18.12% butylphthalide, 0.87% butylidenphthalide, 35.37% senkyanolide, 20.99% sedanolide, 2.23% C16-fatty acid and 3.14% oleic acid, based on the total weight of the celery seed oil extract.
The marble burying test was performed in Type II cages (16×22 cm), which were filled with normal rodent bedding material, up to a depth of 4 cm, and the bedding was flattened gently by hand to ensure an even surface. […]
At the start of the test, mice were individually placed into the test cages and left to explore for 30 min. At the end of the test, the mice were removed from the cages and the number of marbles which have been buried (i.e. at least ⅔ covered with bedding) were counted. […]
Celery seed oil extract was evaluated after sub-chronic oral administration at 50, 100, 200, 300 mg/kg with fluoxetine at 10 mg/kg as reference substance and corn oil as vehicle. […]

T2 sequence (P31645 whole entry): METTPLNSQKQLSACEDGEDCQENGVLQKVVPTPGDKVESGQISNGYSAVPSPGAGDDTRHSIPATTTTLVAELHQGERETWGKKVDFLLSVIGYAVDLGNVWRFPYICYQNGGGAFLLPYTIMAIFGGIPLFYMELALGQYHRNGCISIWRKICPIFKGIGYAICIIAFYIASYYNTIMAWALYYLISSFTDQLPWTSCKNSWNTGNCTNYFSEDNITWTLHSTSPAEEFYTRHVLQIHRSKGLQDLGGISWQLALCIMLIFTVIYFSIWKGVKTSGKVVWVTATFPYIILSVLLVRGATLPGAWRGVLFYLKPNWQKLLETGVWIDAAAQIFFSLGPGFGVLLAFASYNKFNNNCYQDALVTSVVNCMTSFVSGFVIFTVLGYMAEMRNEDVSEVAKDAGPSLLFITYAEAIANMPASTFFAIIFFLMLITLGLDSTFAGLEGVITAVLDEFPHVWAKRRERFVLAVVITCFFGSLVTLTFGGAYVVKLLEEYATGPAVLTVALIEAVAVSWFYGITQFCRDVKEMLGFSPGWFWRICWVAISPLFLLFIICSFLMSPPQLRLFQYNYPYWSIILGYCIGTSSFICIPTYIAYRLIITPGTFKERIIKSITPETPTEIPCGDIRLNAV

| SMILES | IC50 [1] [µM] | IC50 [2] [µM] | IC50 [3] [µM] | % MARBLES BURIED (mice) [%] |
| --- | --- | --- | --- | --- |
| CCCC[C@@H]1OC(=O)[C@@H]2C=CCC[C@H]12 [Cnidilide] | 109 | 40.5 | > 100 |  |
| CNCCC(Oc1ccc(C(F)(F)F)cc1)c1ccccc1 (stereo not drawn) [Fluoxetine] |  |  |  | −78 |
| CCCC[C@@H]1OC(=O)C2=C1CCC=C2 [Senkyunolide A] |  | 32.5 |  |  |
| CCC/C=C1\OC(=O)c2c(O)cccc21 [Senkyunolide B] |  | 75 |  |  |
| CCC/C=C1\OC(=O)c2ccc(O)cc21 [Senkyunolide C] | 2.14 | 31.4 | 2.72 |  |

— patent US20100184852A1, “ORGANIC COMPOUNDS FOR TREATMENT OF DISORDERS CONNECTED TO IMPAIRED NEUROTRANSMISSION” (priority 2006, published 2010)
